Publication PMC11904993, “Humanized Candida and NanoBiT Assays Expedite Discovery of Bdf1 Bromodomain Inhibitors With Antifungal Potential” (Advanced Science, 2025)
Values joined by “and” are separate entries in the source; they are usually repeats but may differ in a detail not shown here. Equal values may be shown once. Read-outs that look alike come from different tables or passages of the source.

Columns and labels:
[1] = tested on: IMR90 (primary fibroblast) cells; details: highest concentration tested (300 µM); 24 h
Protocol: Cytotoxicity assays were performed as described^[ [1] ^] with minor changes. Proliferation of human cells was assessed using an MTT colorimetric assay (Cell Proliferation Kit I, Roche). HeLa (epithelial cells, ATCC number CCL‐2) and IMR90 (primary fibroblasts cells, ATCC number CCL‐186) cells were cultured in humidified atmosphere (37 °C and 5% CO2) in DMEM medium containing 10% heat inactivated fetal calf serum and 2 mM glutamine. […] Plates were incubated at 37 °C and 5% CO2 for 24 h before adding 10 mL of MTT labelling reagent (final concentration 0.5 mg mL^−1) to each well. After incubating for a further 4 h, 100 µL of the solubilization solution were added in each well. Plates were allowed to stand overnight in the incubator before measuring the absorbance at 570 nm and at 690 nm in a ClarioStar plate reader. The values of A570–A690 nm were normalized relative to that obtained with vehicle (0.2% DMSO, 0.8% ethanol) and plotted against compound concentration.

[2] = tested on: C. tropicalis; assay: Growth in liquid media; format: cell-based; details: Fig 5C; for Growth (%): C. tropicalis
Protocol: (§1) Strains were presented in Table S8 (Supporting Information). Cells from a single colony were diluted in 0.85% NaCl before being counted using a Neubauer chamber. They were diluted to a final concentration of 6500 cells mL^−1 per well for all clinical strains of C. albicans and C. glabrata; 65 000 cells mL^−1 per well for C. auris; 13 500 cells mL^−1 per well for C. parapsilosis; 3375 cells mL^−1 per well for C. krusei and 1687.5 cells mL^−1 per well for C. tropicalis, in a sterile 96‐well plate. Cells were then grown in SC medium with or without chemical compounds at 30 °C with regular shaking. The significance of growth defects was assessed using Holm‐Sidak method by GraphPad Prism 10.

[3] = tested on: C. auris; assay: Growth in liquid media; format: cell-based; details: Fig 5C; for Growth (%): C. auris
Protocol: as §1

[4] = tested on: C. parapsilosis; assay: Growth in liquid media; format: cell-based; details: Fig 5C; for Growth (%): C. parapsilosis
Protocol: as §1

[5] = tested on: C. krusei; assay: Growth in liquid media; format: cell-based; details: Fig 5C
Protocol: as §1

[6] = tested on: C. albicans; assay: Growth of reference and clinical strains in liquid media; format: cell-based; details: for EC50: Candida albicans
Protocol: as §1

[7] = tested on: C. glabrata; assay: as above; format: cell-based; details: for Growth (%): C. glabrata; for EC50: Nakaseomyces glabratus
Protocol: as §1

[8] = tested on: humanized C. albicans strains (both Bdf1 BDs replaced by Brd4 BDs); assay: Growth in liquid media, humanized C. albicans; format: cell-based; details: Candida albicans, read-out: EC50 (μM), C. albicans (hum)
Protocol: as §1

[9] = tested on: C. albicans expressing humanized Bdf1; assay: Galleria fungal infection model, humanized strain; format: in vivo, Galleria mellonella; set-up: key to survival event of one larva (1 = death 0 = no death): 1 = death; 0 = no death; details: for survival event of one larva (1 = death 0 = no death): Bdf1-hBD* strain
Protocol: Galleria mellonella larvae were purchased from Decathlon (La Tronche, France). They were selected in the late larval stages weighing between 300 and 400 mg. Groups of 10 larvae were injected into the right or left last pro‐leg with 10 µl of either PBS, C. albicans suspensions or antifungal drug using an insulin syringe (BDUltra‐Fine 0.3 ml). C. albicans suspensions of the WT and humanized Bdf1 strains were adjusted to 10^6 cells larva^−1. Antifungal drugs (anidulafungin 5 mg kg^−1 or I‐BET726 66 or 44 mg kg^−1) were injected once 30 min before fungal infection. An infected control group received the C. albicans inoculum and the solvent of the drug. A non‐infected control group received only PBS. After inoculation, larvae were placed in Petri dishes and incubated in the dark at 37 °C. The larvae were monitored for 5 days, and survival outcome was determined. For experiments performed at the lower (44 mg kg^−1) dose of IBET‐726, the difference in protection against infection with humanized versus WT C. albicans strains was more evident using the survival data at 40 h rather than at 100 h post‐infection. Larvae were considered dead when no response was observed following touch. All experiments were performed at least 3 times independently. The significance of survival was assessed by a Log‐rank (Mantel‐Cox) test in GraphPad Prism 10.

Cc1ccc(-c2nnc(C)c(NCc3ccc(C)o3)n2)cc1 [Compound 24c, 6‐methyl‐N‐((5‐methylfuran‐2‐yl)methyl)‐3‐(p‐tolyl)‐1,2,4‐triazin‐5‐amine]
cytotoxicity toward IMR90 cells (MTT) [1]: modest cytotoxicity

CC(=O)N1c2ccc(-c3ccc(C(=O)O)cc3)cc2C(Nc2ccc(Cl)cc2)CC1C (stereo not drawn) [I-BET726]
Growth (%) ([2]; 1.5625 µM): 85% and 87% and 84% | Growth (%) ([2]; 3.125 µM): 76% and 75% | Growth (%) ([2]; 25 µM): 31% and 40% and 34% | EC50 ([2]; Candida tropicalis): 8.8 ± 1.4 µM | Growth (%) ([3]; 1.5625 µM): 91% and 92% and 90% | Growth (%) ([3]; 3.125 µM): 85% and 86% and 87% | Growth (%) ([3]; 25 µM): 73% and 79% | EC50 ([3]; Candidozyma auris): > 50 µM | Growth (%) ([4]; 1.5625 µM): 87% and 91% and 88% | Growth (%) ([4]; 3.125 µM): 79% and 80% and 78% | Growth (%) ([4]; 25 µM): 58% and 59% and 57% | EC50 ([4]; Lodderomyces parapsilosis): ~30 µM | Growth (%) ([5]; 1.5625 µM): 97% and 93% | Growth (%) ([5]; 3.125 µM): 102% and 92% and 91% | Growth (%) ([5]; 25 µM): 103% and 86% and 91% | Growth (%) ([6]; C. albicans, 1.5625 µM, Fig 5C): 81% and 83% and 74% | Growth (%) ([6]; C. albicans, 3.125 µM, Fig 5C): 66% and 63% and 57% | Growth (%) ([6]; C. albicans, 25 µM, Fig 5C): 17% and 23% and 20% | Growth (%) ([6]; C. albicans, 25 µM, Fig 5E): 17% and 23% and 20% | EC50 ([6]; ATCC90028, Table S5, C. albicans ATCC90028, WT, read-out: EC50 growth inhibition): 4.25 ± 0.47 µM | EC50 ([6]; Fig 5C, read-out: EC50 (μM), C. albicans): 4.3 ± 0.5 µM | EC50 ([6]; Table S5, C. albicans CagR, echinocandin-resistant, not characterized, read-out: EC50 growth inhibition): 4.14 ± 0.48 µM | EC50 ([6]; all eight azole- and echinocandin-resistant C. albicans clinical isolates, read-out: EC50 growth inhibition): 5 to 10 µM | EC50 ([6]; read-out: EC50 growth inhibition, Table S5, C. albicans AF1, echinocandin-resistant, Fks1-HS1 (S645P)): 7.13 ± 1.48 µM | EC50 ([6]; read-out: EC50 growth inhibition, Table S5, C. albicans AF2, echinocandin-resistant, Fks1-HS1 (S645P)): 4.59 ± 0.95 µM | EC50 ([6]; read-out: EC50 growth inhibition, Table S5, C. albicans AF3, echinocandin-resistant, Fks1-HS1 (S645P)): 6.83 ± 0.26 µM | EC50 ([6]; read-out: EC50 growth inhibition, Table S5, C. albicans CAAL74, fluconazole-resistant, Erg11 (Y132F, E266D, G448V, V488I)): 5.87 ± 1.03 µM | EC50 ([6]; read-out: EC50 growth inhibition, Table S5, C. albicans DSY292, azole-resistant, Erg11 (Y132H, G464S, R467K)): 3.07 ± 0.26 µM | EC50 ([6]; read-out: EC50 growth inhibition, Table S5, C. albicans DSY296, azole-resistant, Erg11 (G129A, G464S, G450E), Tac1 (N977D)): 7.36 ± 0.76 µM | EC50 ([6]; read-out: EC50 growth inhibition, Table S5, C. albicans DSY2323, azole-resistant, Erg11 (S405F), Tac1 (G980E)): 11.5 ± 1.7 µM | Growth (%) ([6]; strain AF1, 25 µM, Fig 5E): 34% and 31% and 28% | Growth (%) ([6]; strain AF2, 25 µM, Fig 5E): 26% and 28% and 29% | Growth (%) ([6]; strain AF3, 25 µM, Fig 5E): 26% and 25% and 28% | Growth (%) ([6]; strain CAAL74, 3.13 µM, Fig 5D): 67% and 74% and 60% | Growth (%) ([6]; strain CagR, 25 µM, Fig 5E): 18% and 12% | Growth (%) ([6]; strain DSY292, 0.78 µM, Fig 5D): 84% and 81% and 86% | Growth (%) ([6]; strain DSY292, 3.13 µM, Fig 5D): 55% and 51% | Growth (%) ([6]; strain DSY296, 0.78 µM, Fig 5D): 97% and 88% and 92% | Growth (%) ([6]; strain DSY296, 3.13 µM, Fig 5D): 71% and 66% and 72% | Growth (%) ([6]; strain DSY2323, 3.13 µM, Fig 5D): 85% and 88% and 76% | Growth (%) ([7]; 1.5625 µM, Fig 5C): 91% and 84% and 88% | Growth (%) ([7]; 3.125 µM, Fig 5C): 88% and 77% and 93% | Growth (%) ([7]; 25 µM, Fig 5C): 62% and 60% and 75% | EC50 ([7]; read-out: EC50 growth inhibition, Table S5, C. glabrata DSY565, azole-resistant, Pdr1 (L280F)): 1.14 ± 0.62 µM | EC50 ([7]; read-out: EC50 growth inhibition, Table S5, C. glabrata HAB1, azole-resistant, Pdr1 (T370I)): 1.66 ± 0.56 µM | EC50 ([7]; Fig 5C, read-out: EC50 (μM), C. glabrata): 12 ± 5.6 µM | EC50 ([7]; Table S5, C. glabrata ATCC2001, WT, read-out: EC50 growth inhibition): 1.52 ± 0.44 µM | EC50 [8]: 0.035 ± 0.003 µM | protection against infection ([9]; 44 mg kg^−1, humanized strain, p = 0.0115, Mantel‐Cox test): significant protection | survival of infected larvae ([9]; 66 mg kg^−1, injected once 30 min before infection, humanized strain): ≈ 100 h | survival event of one larva (1 = death 0 = no death) ([9]; Figure 6C, Time 8 hours): 1 | survival event of one larva (1 = death 0 = no death) ([9]; Figure 6C, Time 33 hours): 1 | survival event of one larva (1 = death 0 = no death) ([9]; Figure 6C, Time 57 hours): 1 | survival event of one larva (1 = death 0 = no death) ([9]; Figure 6C, Time 70 hours): 1 | survival event of one larva (1 = death 0 = no death) ([9]; Figure 6D, Time 27 hours): 1 | survival event of one larva (1 = death 0 = no death) ([9]; Figure 6D, Time 41 hours): 1 and 0
